We go through seven compounds from PMC4783973, “Synthetic Human TLR9-LRR11 Peptide Attenuates TLR9 Signaling by Binding to and thus Decreasing Internalization of CpG Oligodeoxynucleotides” (International Journal of Molecular Sciences, 2016).

The conditions of data set [1]: cited from earlier work. An excerpt:
(§1) CpG ODN must be internalized within cells before activating TLR9 signaling and inducing cytokines release. Thus, interfering with CpG ODN internalization probably leads to reduced activation of TLR9 signaling.

Another data set has as its system TLR signaling. The conditions noted are these: inhibitors of clathrin-mediated phagocytosis; ref [24]; cited from earlier work.
Source text: as §1

Data set [2] relates to RAW264.7 cells. Briefly: TNF-α and IL-6 release from RAW264.7 cells, both cytokines stated together (ELISA). The format is cell-based, mouse. The conditions noted are these: for effect on TNF-α and IL-6 release (CpG ODN stimulation): CpG ODN 1.5 μM, 6 h, n = 4 (Figure 1). The method, then: Figure 1 Synthetic peptide (SP) decreased TNF-α and IL-6 release from RAW264.7 cells treated with CpG oligodeoxynucleotides (CpG ODN). RAW264.7 cells (4.0 × 10^5 cells) grown in 48-well plates were treated with 1.5 μM of ODN2006 or ODN107 preincubated with SP (0, 0.5, 1.5, or 4.5 μM) or unrelated peptide (URP) (4.5 μM) at 37 °C for 15 min. After incubation for 6 h, the supernatants were collected to detect TNF-α (A) and IL-6 (B) using enzyme-linked immunosorbent assay (ELISA) kits. Data from one of three independent experiments are shown (n = 4). “*”, p < 0.05 vs. ODN2006 or ODN107; “**”, p < 0.01 vs. ODN2006 or ODN107; “#”, p > 0.05 vs. ODN2006 or ODN107.
(§2) Experiments were performed as described in Figure 1. The concentrations of ODN2006, LPS, PAM3 and SP were 1.5 μM, 20 ng/mL, 5 μg/mL and 1.5 μM, respectively. Data from one of three independent experiments are shown (n = 3).
(§3) The RAW264.7 cell line was purchased from American Type Culture Collection (ATCC, Manassas, VA, USA). Cells were cultured in DMEM (high glucose) medium containing 10% FCS in a 37 °C humidified atmosphere with 5% CO2. Cells diluted with 0.4% trypan blue in phosphate-buffered saline (PBS, 0.1 mM, pH 7.2–7.4) were counted using a hemocytometer.
(§4) RAW264.7 cells (4.0 × 10^5 cells) were incubated in 48-well plates for 4 h, and supernatants were replaced with 0.4 mL of serum-free DMEM medium containing 1.5 μM of ODN2006 or ODN107, which had been preincubated with 0, 0.5, 1.5 or 4.5 μM of SP or 4.5 μM of URP at 37 °C for 15 min. After incubation for 6 h, the supernatants were collected to detect TNF-α and IL-6 concentrations using corresponding ELISA kits (eBioscience).
On the technique in general: ELISA stands for enzyme-linked immunosorbent assay.

Another data set deals with NF-κB p65 subunit. The data set can be described thus: NF-κB activity assay, p65 subunit in nuclear extract of RAW264.7 cells (Trans^AM ELISA). The format is cell-based. The conditions noted are these: CpG ODN 1.5 μM; 4 h; n = 3. The method, then: Figure 3 Synthetic peptide (SP) inhibited NF-κB activation induced by CpG oligodeoxynucleotides (CpG ODN) in RAW264.7 cells. RAW264.7 cells (5.0 × 10^6 cells) grown in six-well plates were treated with 1.5 μM of ODN2006 (A) or ODN107 (B) preincubated with SP (0, 0.5, 1.5, or 4.5 μM) or unrelated peptide (URP) (4.5 μM) at 37 °C for 15 min. After incubation for 4 h, the cells were collected to extract nuclear proteins. The p65 subunit was detected using enzyme-linked immunosorbent assay (ELISA) kits. Data from one of three independent experiments are shown (n = 3). “*”, p < 0.05 vs. ODN2006 or ODN107; “**”, p < 0.01 vs. ODN2006 or ODN107; “#”, p > 0.05 vs. ODN2006 or ODN107.
as §3
RAW264.7 cells (5.0 × 10^6 cells) were placed in six-well plates for 4 h, and the supernatants were then replaced with fresh medium containing 1.5 μM of ODN2006 or ODN107 that had been preincubated with SP (0, 0.5, 1.5, or 4.5 μM) or URP (4.5 μM) at 37 °C for 15 min. After incubation for 4 h, the cells were collected to extract nuclear proteins. Equal amounts of each sample were used to detect the DNA binding activity of the NF-κB p65 subunit using Trans^AM NF-κB ELISA kits (Active Motif), according to the manufacturer’s instructions.

In the next data set the test system is IκBα. The data set can be described thus: IκBα degradation and phosphorylation in RAW264.7 cells (western blotting). In kind it is cell-based. The conditions noted are these: ODN2006 1.5 μM; 4 h. The method, then:
Figure 4 Synthetic peptide (SP) decreased the phosphorylation of IκBα and ERK1/2 in RAW264.7 cells treated with CpG oligodeoxynucleotides (CpG ODN). RAW264.7 cells (1.0 × 10^7 cells) grown in 10-cm dishes were treated with 1.5 μM of ODN2006 (A) or ODN107 (B) pre-incubated with SP (0, 0.5, 1.5, or 4.5 μM) at 37 °C for 15 min. After incubation for 4 h, cells were harvested to extract total protein; and the protein expressions of IκBα, phosphorylated (p)-IκBα, ERK1/2 and p-ERK1/2 were detected by western blotting. Data from one of three independent experiments are shown.
as §3
RAW264.7cells (1.0 × 10^7 cells) were incubated in dishes for 4 h, and the supernatants were replaced with fresh medium containing 1.5 μM of ODN2006 that had been preincubated with 0.5, 1.5 or 4.5 μM of SP for 15 min. Cells were sequentially cultured for another 4 h and then harvested to extract total proteins. Equal amounts of proteins from each treatment were separated by SDS-PAGE, and transferred onto 0.22 μm PVDF membranes (Bio-Rad). […]
A general note: A western blot detects proteins with antibodies after separation by electrophoresis.

The test system of data set [3] is RAW264.7 cells. Briefly: competitive internalization experiment with non-labeled ODN2006, confocal. The conditions noted are these: SP 1.5 μM, FAM-2006 1.5 μM, 30 min, n = 100. The format is cell-based. Here is the method: However, the results could not exclude the possibility that SP might act on FAM not ODN2006 itself. Therefore, a competitive internalization experiment using non-labeled ODN2006 was performed. Non-labeled ODN2006 and FAM-2006 have same ability to bind SP, but FAM had no such ability. If SP specifically acted on ODN2006, non-labeled ODN2006 might increase FAM-2006 internalization, and the intracellular fluorescence intensity would increase. […] Therefore, FAM-2006 could completely enter the cells, resulting in a subsequent increase in intracellular fluorescence.
Figure 7 Non-labeled ODN2006 restored internalization of FAM-labeled ODN2006 preincubated with synthetic peptide (SP) (Scale bar = 20 μm). […] The intracellular FAM-2006 (green) (A), mean fluorescence intensity (MFI) values (B) and the percentages of cells with FAM-2006 dots (green fluorescence) (C) were observed as described in Figure 5 (n = 100). […]
RAW264.7 cells (1.0 × 10^6 cells) were grown on 2-cm glass bottom dishes for 4 h, and supernatants were replaced with 1 mL of serum-free DMEM medium containing FAM-2006 (1.5 μM) that had been pre-incubated with SP (0, 0.5, 1.5 or 4.5 μM) at 37 °C for 15 min. […] The intracellular FAM-2006 (green fluorescence) was observed using a laser confocal microscope. Mean fluorescence intensity (MFI) values were calculated by the ZEN lite 2012 software.

The next data set concerns PAM3/TLR1/TLR2. Briefly: PAM3CSK4 (TLR1/2)-induced TNF-α and IL-6 release from RAW264.7 cells (ELISA). The format is cell-based, mouse. The conditions noted are these: PAM3 5 μg/mL; n = 3 (Figure 2). Here is the method:
as §2, §3, §4

In the next data set the test system is LPS/TLR4. The data set can be described thus: LPS (TLR4)-induced TNF-α and IL-6 release from RAW264.7 cells (ELISA). The format is cell-based, mouse. The conditions noted are these: LPS 20 ng/mL; n = 3 (Figure 2). The method, then: as §2, §3, §4
Data set [4] has as its system CpG ODN-induced cytokine release. The conditions noted are these: ref [19],[20]; cited from earlier work. An excerpt:
CpG ODN-induced diseases, such as sepsis and some autoimmune disorders, are triggered by uncontrolled release of proinflammatory cytokines, e.g., TNF-α and IL-6 [18]. […] Herein, we firstly evaluated the inhibitory effect of SP on CpG ODN-induced cytokine release in the cellular tests. Tw ... || NF-κB is one of the most important inflammatory switches that comprise a series of transcription factors that regulate the expressions of various proinflammatory cytokines (IL-1, IL-6, IL-8 and TNF-α). NF-κB activation is depended on the degradation and phosphorylation of IκBα [12].

Read-outs that look alike come from different tables or passages of the source.

As for `CN(C)c1cccc2c(S(=O)(=O)NCCCCCN)cccc12` [monodansylcadaverine], in data set [1], the cell toxicity entry was “distinct cell toxicity”. Besides, in the data set with TLR signaling, the “effect on TLR signaling” value was “significant inhibitory effects on TLR signaling”.
For the compound “5′-TCGTCGTTTTGTCGTTTTGTCGTT-3′ [ODN2006]”, the “effect on TNF-α and IL-6 release (CpG ODN stimulation)” value with RAW264.7 cells [2] is “significantly increased”. Moreover, the “effect on TNF-α and IL-6 release (stimulation)” value (“effect … (stimulation)” below) with RAW264.7 cells [2] (ODN2006 1.5 μM, n = 3 (Figure 2)) is on record as “significantly increased”. For the same compound, the “effect on activation of p65 (CpG ODN stimulation)” value in the data set with NF-κB p65 subunit was “significantly increased”. The “levels of IκBα phosphorylation and degradation (CpG ODN stimulation)” value in the data set on IκBα is listed as “significantly increased”. Further, in the data set with RAW264.7 cells [3] (non-labeled ODN2006 0, 0.5, 1.5 or 4.5 μM, dose-dependent), the “MFI and percentage of cells with green fluorescence (FAM-2006 + SP, competition)” value is “increased the MFI and the percentage of cells with green fluorescence”. Further, the “restoration of FAM-2006 internalization (competition)” value with RAW264.7 cells [3] (non-labeled ODN2006 4.5 μM) is reported as “completely restore cell internalization of FAM-2006”.
For PAM3CSK4, the “effect … (stimulation)” value in the data set on PAM3/TLR1/TLR2 is given as “significantly increased”.
As for `O=C(N/N=C/c1ccc(O)c(O)c1)c1cc2ccccc2cc1O` [dynasore], the cell toxicity result in data set [1] (ref [24]) was “distinct cell toxicity”. Also, the “effect on TLR signaling” value in the data set on TLR signaling was “significant inhibitory effects on TLR signaling”.
Turning to “5′-TGGCGCGGGCGG-3′ (DNA, all phosphorothioate, methylation of C not given here) [ODN107, a stimulatory CpG ODN developed in our laboratory]”, the “effect on TNF-α and IL-6 release (CpG ODN stimulation)” value in the data set with RAW264.7 cells [2] was “significantly increased”. In addition, in the data set on NF-κB p65 subunit, the “effect on activation of p65 (CpG ODN stimulation)” value was “significantly increased”.
With lipopolysaccharide [LPS], the “effect … (stimulation)” value in the data set on LPS/TLR4 is “significantly increased”.
With `CCN(CC)CCCC(C)Nc1ccnc2cc(Cl)ccc12` (stereo not shown) [chloroquine], in data set [4], the “effect on CpG ODN-induced cytokine release” value is reported as “inhibitors of CpG ODN-induced cytokine release” and the “effect on proinflammatory cytokines” value was “inhibited proinflammatory cytokines”.
